According to paper PMC6273649, “Synthesis of Novel Quaternary Ammonium Salts and Their in Vitro Antileishmanial Activity and U-937 Cell Cytotoxicity” (Molecules, 2016):
In brackets after ≈: the same amount, converted by molar mass. Where two headings read alike, the source gives them in different places.

Key:
in vitro = assay: in vitro
Procedure: (§1) U-937 promonocytes (CRL1593.2™) were obtained from the American Type Culture Collection (ATCC, Manassas, VA, USA), cultured in complete medium containing RPMI 1640 medium (Sigma) supplemented with 10% fetal bovine serum (FBS) (Gibco, Life Technologies, Grand Island, NY, USA) and 1% antibiotics (100 U/mL penicillin and 0.1 mg/mL streptomycin) (Sigma). Cells were maintained in standard conditions at 37 °C, 5% CO2 with change of medium every three days until use.
(§2) The cytotoxicity of compounds was assessed based on the viability of U-937 cells and evaluated by the MTT (3-(4,5-dimethylthiazol-2-yl)-2,5-diphenyltetrazolium bromide) method as described by others. Briefly, into each well of a 96-well cell-culture dishes 100,000 cells/100 μL were dispensed in RPMI-1640 supplemented with 10% FBS and 100 μL of the corresponding concentrations of the corresponding product. Six two fold serial dilutions were tested starting at 200 µg/mL (200, 100, 50, 25, 12.5 and 6.25 μg/mL). Cells were incubated at 37 °C with 5% CO2 for 72 h in the presence of compounds, and then the effect was determined by measuring the activity of the mitochondrial dehydrogenase by adding 10 µL/well of MTT solution (0.5 mg/mL) and incubating at 37 °C for 3 h. The reaction was stopped by adding 100 μL /well of 50% isopropanol solution with 10% sodium dodecyl sulfate for 30 min. Cell growth was determined based on the quantity of formazan produced, which was measured at 570 nm in a plate reader spectrophotometer (Bio-Rad, Hercules, CA, USA). Cells cultured in the absence of products were used as cell growth controls (negative control), while cells cultured in presence of amphotericin B (AmB, Sigma) and meglumine antimoniate (MA, Sanofi-Aventis, Bogotá, Colombia) were used as cytotoxicity controls (positive control). Each concentration was tested in triplicate in at least two independent experiments.
(§3) Cytotoxicity was determined according to the percentages of cell growth (viability) obtained for each tested compound or medium alone. Percentages of viability were calculated first using Equation (1): % Viability = (O.D. of treated cells)/(O.D. of untreated cells) × 100(1) where the O.D. of the untreated cells corresponds to 100% viability. Then, the percentage of cell growth inhibition was calculated using Equation (2): % Cell growth inhibition = 100 − % Viability(2)
(§4) The degree of cytotoxicity was established as convenient according to the LC50 values, using our own scale: high cytotoxicity: LC50 < 100 μg/mL, moderate cytotoxicity: 100 μg/mL < LC50 < 200 μg/mL; and potential non-cytotoxicity: LC50 > 200 μg/mL.

[1] = tested on: intracellular amastigotes of L. (V) panamensis-pIR-eGFP; assay: organism not typed; type: cell-based; conditions: for EC50: U-937, 72 h, read-out: Intracellular Amastigotes EC50; for degree of leishmanicidal activity, intracellular amastigotes: authors' own scale by EC50
Procedure: (§5) Virulent L. (V) panamensis MHOM/CO/87/UA140 strain transfected with green fluorescent protein gene called L. (V) panamensis-pIR-eGFP was maintained by successive passaging in golden hamsters (Mesocricetus auratus). Briefly, amastigotes were aspirated from cutaneous lesions of hamsters experimentally infected with promastigotes of L. (V) panamensis-pIR-eGFP. Samples were cultured in biphasic culture with Novy-MacNeal-Nicholle (NNN) medium as solid phase and PBS plus glucose, pH 6.9 as liquid phase and incubated at 26 °C to obtain promastigotes. Medium was changed every week until 2 months.
Intracellular amastigotes were obtained after infection of U-937 cells with promastigotes. Briefly, U-937 cells were dispensed in 24-well plates at a concentration of 300,000 cells/well and were treated with 1 µM of phorbol myristate acetate (PMA) (Sigma) for 48 h at 37 °C. Then, cells were infected with promastigotes in stationary growth phase (day 5) at a ratio of 1:15 cell/parasite and incubated for 3 h at 34 °C in 5% CO2. […] After 24 h of infection, cells were ready to be used in antileishmanial testing assay as described below.
The effect of compounds against intracellular amastigotes of L. (V) panamensis-pIR-eGFP was evaluated by flow cytometry using the methodology described by others. […] Infected and treated cells were maintained at 34 °C and 5% CO2 for 72 h. After 72 h, cells were washed twice with 1 mL of cold PBS and cells were removed from the bottom plate with a trypsin/EDTA ([…]) solution. Recovered cells were centrifuged at 1100 rpm for 10 min at 4 °C, the supernatant was discarded and cells were washed with 1 mL of cold PBS and centrifuged at 1100 rpm for 10 min at 4 °C. Supernatant was discarded and cells were suspended in 500 μL of PBS and analyzed by flow cytometry (FC 500MPL, Cytomics, Brea, CA, USA) using histogram analyses (Figure 2). […] Each concentration of compounds was tested in triplicate in two independent experiments.
The antileishmanial activity in intracellular amastigotes was determined according to the reduction of infected cells and parasite load (viable parasites inside infected cells) obtained for each experimental condition. The percentage of infected cell inhibition and parasite load for each concentration of each compound were calculated first using Equation (3): % infection = (% infected and treated cells ÷ % infected and untreated cells) × 100(3)
And then, the percentage of infection inhibition was calculated using Equation (4): % Inhibition = 100 − % infection(4)

[2] = tested on: axenic amastigotes of L. (V) panamensis; assay: organism not typed; type: cell-based; conditions: for EC50 / Axenic Amastigotes EC50: 72 h, mean ± standard deviation; for degree of leishmanicidal activity, axenic amastigotes: authors' own scale by EC50
Procedure: as §5
The axenic amastigotes were obtained from promastigotes cutured in Schneider’s medium, as described elsewhere. Briefly, promastigotes of L. (V) panamensis-pIR-eGFP at 5 × 10^6 parasites/mL were cultured in Schneider medium (Sigma), pH 5.4 supplemented with 20% FBS and 1% antibiotics and incubation at 26 °C. Every three days, medium was changed and temperature was increased one degree each time until it reached 32 °C at which the transformation of the promastigotes into axenic amastigotes is achieved. After three days of growing as axenic amastigotes, parasites were ready to be used in the antileishmanial testing assay as described below.
The ability of compounds to kill axenic amastigotes of L. (V) panamensis was determined based on the viability of the parasites after exposure to each compound evaluated by the MTT method following the methodology described by others. Axenic amastigotes obtained as described above were harvested, washed, and adjusted at 2 × 10^6 parasites/mL in fresh Schneider’s medium with 20% FBS. Into each well of a 96-well plate 100 µL of parasite suspension (2 × 10^5 axenic amastigotes) were dispensed and then 100 µL of each concentration of the corresponding compound were added. […] Plates were incubated at 32 °C. After 72 h of incubation, the effect of each compound was determined by adding 10 µL/well of MTT and incubating at 32 °C for 3 h. The reaction was stopped as described above and the quantity of formazan produced was measured in a plate reader spectrophotometer (Bio-Rad) set at 570 nm. Axenic amastigotes cultivated in the absence of any compound but maintained under the same conditions were used as controls for growth and viability (negative control) while parasites cultivated in the presence of MA were used as controls for leishmanicidal activity (positive control). Assays were performed at least twice with three replicates per each concentration tested.
In turn, activity of compounds with axenic amastigotes was determined according to the reduction of parasite growth percentages obtained for each experimental condition. The percentage of parasite growth was calculated first using Equation (5): % parasite growth = (O.D. treated ax. amastigotes)/(O.D. of untreated ax. amastigotes) × 100(5) where the O.D. of the untreated axenic amastigotes corresponds to 100% parasite growth. Then, the percentage of parasite growth inhibition was calculated using Equation (6): % parasite growth inhibition = 100 − % parasite growth(6)

U-937 cells = assay: in vitro; conditions: U-937 cells
Procedure: as §1, §2, §3, §4

[3] = L. (V) panamensis in U-937 cells, flow cytometry, 72 h, mean ± standard deviation
[4] = L. (V) panamensis axenic amastigotes, MTT, read-out: Axenic Amastigotes EC50
[5] = L. (V) panamensis axenic amastigotes, MTT

## C[N+](C)(C)CCC=C(c1ccccc1)c1ccccc1.[I-] [Compound 3a, N,N,N-Trimethyl-N-(4,4-diphenylbut-3-en-1-yl)ammonium iodide]
In vitro
  CC50 at 72 h: 39.2 ± 4.8 µg/mL
[1]; [3]
  EC50: 30 ± 1.4 µg/mL
[1]
  degree of leishmanicidal activity, intracellular amastigotes: moderate (moderate activity: 25 μg/mL < EC50 < 50 μg/mL)
[2]; [4]
  EC50: 25 ± 0.7 µg/mL
[2]
  degree of leishmanicidal activity, axenic amastigotes: high (high leishmanicidal activity: EC50 < 25 μg/mL)

## C[N+](C)(CCl)CCCC=C(c1ccccc1)c1ccccc1.[I-] [Compound 1b, N-Chloromethyl-N,N-dimethyl-N-(5,5-diphenylpent-4-en-1-yl)ammonium iodide]
In vitro
  CC50 at 72 h: 21 ± 2 µg/mL
[1]; [3]
  EC50: 46.8 ± 1.2 µg/mL
[2]; [4]
  EC50: 56.3 ± 3.7 µg/mL

## C[C@@H]1[C@H](O)[C@@H](C)/C=C/C=C/C=C/C=C/C=C/C=C/C=C/[C@H](O[C@@H]2O[C@H](C)[C@@H](O)[C@H](N)[C@@H]2O)C[C@@H]2O[C@](O)(C[C@@H](O)C[C@@H](O)[C@H](O)CC[C@@H](O)C[C@@H](O)CC(=O)O[C@H]1C)C[C@H](O)[C@H]2C(=O)O [AmB, Amphotericin B, reference compound]
In vitro; human
  CC50 at 72 h: 28.2 ± 0.5 µg/mL (≈ 30.5 µM)

## C[N+](C)(CCl)CCO [Compound 4a, N-Choromethyl-N,N-dimethyl-N-(2-hydroxyet-1-yl)ammonium iodide]
In vitro
  CC50 at 72 h: 17.9 ± 0.02 µg/mL
[1]; [3]
  EC50: 29.6 ± 2.8 µg/mL
[1]
  degree of leishmanicidal activity, intracellular amastigotes: moderate (moderate activity: 25 μg/mL < EC50 < 50 μg/mL)
[2]; [4]
  EC50: 24.3 ± 1.3 µg/mL
[2]
  degree of leishmanicidal activity, axenic amastigotes: high (high leishmanicidal activity: EC50 < 25 μg/mL)

## C[N+](C)(C)CCCCC=C(c1ccccc1)c1ccccc1.[I-] [Compound 3c, N,N,N-Trimethyl-N-(6,6-diphenylhex-5-en-1-yl)ammonium iodide]
In vitro
  CC50 at 72 h: 12.5 ± 0.8 µg/mL
[1]; [3]
  EC50: 41.6 ± 2.8 µg/mL
[2]; [4]
  EC50: 34.1 ± 5.1 µg/mL

## C[N+](C)(CCl)CCCCC=C(c1ccccc1)c1ccccc1.[I-] [Compound 1c, N-Chloromethyl-N,N-dimethyl-N-(6,6-diphenylhex-5-en-1-yl)ammonium iodide]
In vitro
  CC50 at 72 h: 21 ± 0.5 µg/mL
[1]; [3]
  EC50: 49.4 ± 3.1 µg/mL
[2]; [4]
  EC50: 40.5 ± 3.3 µg/mL

## meglumine antimoniate [MA, reference compound]
U-937 cells; MTT, 72 h, mean ± standard deviation
  Cytotoxicity LC50: 358.2 ± 1.7 µg/mL
U-937 cells; authors' own scale by LC50
  degree of cytotoxicity: potentially non-cytotoxic
[1]; [3]
  Intracellular Amastigotes EC50: 6.33 ± 0.86 µg/mL
[2]; [5]
  Axenic Amastigotes EC50: 312.1 ± 18.6 µg/mL
[2]
  degree of leishmanicidal activity, axenic amastigotes: not active

## C[N+](C)(CI)CCC=C(c1ccccc1)c1ccccc1.[I-] [Compound 2a, N-Iodomethyl-N,N-dimethyl-N-(4,4-diphenylbut-3-en-1-yl)ammonium iodide]
In vitro
  CC50 at 72 h: 46 ± 5.4 µg/mL
[1]; [3]
  EC50: 27.8 ± 3.9 µg/mL
[2]; [4]
  EC50: 36.2 ± 0.1 µg/mL

## C[N+](C)(CI)CCCC=C(c1ccccc1)c1ccccc1.[I-] [Compound 2b, N-Iodomethyl-N,N-dimethyl-N-(5,5-diphenyl-4-penten-1-yl)ammonium iodide]
In vitro
  CC50 at 72 h: 10.1 ± 0.2 µg/mL
[1]; [3]
  EC50: 24 ± 0.7 µg/mL
[2]; [4]
  EC50: 19.7 ± 1.5 µg/mL

## C[N+](C)(CI)CCO [Compound 4b, N-Iodomethyl-N,N-dimethyl-N-(2-hydroxyet-1-yl)ammonium iodide]
In vitro
  CC50 at 72 h: 17.8 ± 0.2 µg/mL
[1]; [3]
  EC50: 23.9 ± 1 µg/mL
[2]; [4]
  EC50: 19.6 ± 1.8 µg/mL

## C[N+](C)(CCl)CCC=C(c1ccccc1)c1ccccc1.[I-] [Compound 1a, N-Chloromethyl-N,N-dimethyl-N-(4,4-diphenylbut-3-en-1-yl)ammonium iodide]
In vitro
  CC50 at 72 h: 44.4 ± 4.9 µg/mL
[1]; [3]
  EC50: 38.4 ± 0.2 µg/mL
[2]; [4]
  EC50: 35 ± 5.7 µg/mL

## C[N+](C)(CI)CCCCC=C(c1ccccc1)c1ccccc1.[I-] [Compound 2c, N-Iodomethyl-N,N-dimethyl-N-(6,6-diphenylhex-5-en-1-yl)ammonium iodide]
In vitro
  CC50 at 72 h: 9.5 ± 0.3 µg/mL
[1]; [3]
  EC50: 17.6 ± 1 µg/mL
[2]; [4]
  EC50: 14 ± 0.9 µg/mL

## C[N+](C)(C)CCCC=C(c1ccccc1)c1ccccc1.[I-] [Compound 3b, N,N,N-Trimethyl-N-(5,5-diphenylpent-4-en-1-yl)ammonium iodide]
In vitro
  CC50 at 72 h: 27.2 ± 0.7 µg/mL
[1]; [3]
  EC50: 24.7 ± 1.9 µg/mL
[2]; [4]
  EC50: 25 ± 0.5 µg/mL

## C[N+](C)(C)CCO.[I-] [Compound 4c, (2-Hydroxyethyl)trimethylammonium iodide, reference compound]
In vitro
  CC50 at 72 h: 372 ± 43.1 µg/mL
[1]
  EC50: 150 ± 17.9 µg/mL
  degree of leishmanicidal activity, intracellular amastigotes: almost no activity
[2]; read-out: Axenic Amastigotes EC50, L. (V) panamensis axenic amastigotes, MTT, 72 h
  EC50: < 50 µg/mL
[2]; [5]
  Axenic Amastigotes EC50: 47.2 ± 7.1 µg/mL
[2]
  degree of leishmanicidal activity, axenic amastigotes: moderate activity
